Laboratory results: patent US6342499B1, “Parasitic and saprophagous mite control in beneficial insects” (BASF Aktiengesellschaft, priority 1998, dated 2002)

Assays:
Type in all cases: in vivo
[1] = test system: honeybees (Apis mellifera); assay: Example 4: METI, topical treatment of honeybees from hives 70% infested with Varroa; bee mortality; conditions: 5 days at 31° C.
Description: (§1) Honeybees (Apis mellifera) taken from hives which are 70% infested with Varroa jacobsoni are chilled to immobilize the bees. A 1 μl droplet of an acetone solution of test compound is applied to the dorsal abdomen of each bee; control bees receive a 1 μl droplet of acetone. A total of 50-52 bees are treated for each dose rate tested. The treated bees are placed in an incubator at 31° C. in the dark and fed 50% sugar water ad libitum for 5 days. After incubation, the bees are examined for mortality and mite infestation.

Varroa jacobsoni = assay: Example 4: METI, topical treatment of honeybees from hives 70% infested with Varroa; parasite mortality; conditions: 5 days at 31° C.
Description: as §1

[2] = test system: Proctolaelaps sp. mites (Proct); assay: Example 5: treated paper strips in mite-infested Drosophila culture vials; Proctolaelaps mortality; conditions: treated paper strip, after 15 days, percent of expected progeny vs untreated control
Description: (§2) Paper towel strips (2×7 cm) are dipped into an acetone solution of test compound and allowed to dry. Control paper towel strips are dipped into acetone and allowed to dry. Treated strips are placed in 2.5×9.5 cm culture vials containing a standard cornmeal-molasses-agar diet, such that the strips are inserted about 1 cm into the diet. Five pairs of heavily infested, newly emerged Drosophila melanogaster are placed into the test vials and incubated at 25° C. After 5 days, the adult flies are evaluated for % mortality and are removed rom each test vial. After 15 days, the mites [Proctoloaelaps sp.(Proct) and Histiostoma sp.(Hist)] and insect larva/pupa are evaluated for mortality and recorded as a percent of expected progeny as determined by the untreated control. At 14 days approximately 200-500 Histiostoma sp. mites (Hist) and approximately 50 Proctolaelaps sp. mites (Proct) are present in the untreated controls.

[3] = test system: Acarapis woodi (trachea mites); assay: Example 3: tracheal mites walked across glass slides dipped in test compound; time to 100% mortality; conditions: slides dipped in 500 ppm acetone solution
Description: In this evaluation, honeybees (Apis mellifera) which are infested with Acarapis woodi (trachea mites) are dissected to remove the infested tracheae. Glass microscope slides are dipped into acetone solutions of test compound (500 ppm) and the acetone is allowed to evaporate. Infested tracheae are placed directly on the treated slides. The mites are removed from the tracheae by dissection and forced to walk across the treated area. The elapsed time is recorded for 100% mortality, i.e. no movement is observed upon agitation.

Drosophila melanogaster = assay: Example 5: treated paper strips in mite-infested Drosophila culture vials; fly mortality; conditions: treated paper strip; for % Mortality Drosophila Adults: after 5 days at 25° C.; for % Mortality Drosophila larvae: after 15 days, percent of expected progeny vs untreated control
Description: as §2

[4] = test system: Histiostoma sp. mites (Hist); assay: Example 5: treated paper strips in mite-infested Drosophila culture vials; Histiostoma mortality; conditions: treated paper strip, after 15 days, percent of expected progeny vs untreated control
Description: as §2

## CCCCCCCCCCCCC1=C(OC(C)=O)C(=O)c2ccccc2C1=O [Acequinocyl, acequinocyl]
[1]; dose 0.1 μg/bee
  % Mortality Bees: 15%
[1]; dose 1.0 μg/bee
  % Mortality Bees: 10%
[1]; dose 10.0 μg/bee
  % Mortality Bees: 42%
Varroa jacobsoni; dose 0.1 μg/bee
  % Mortality Parasites: 12%
Varroa jacobsoni; dose 1.0 μg/bee
  % Mortality Parasites: 0%
Varroa jacobsoni; dose 10.0 μg/bee
  % Mortality Parasites: 83%

## Fc1ccc(Oc2cc(Oc3ccc(Cl)c(C(F)(F)F)c3)ncn2)cc1C(F)(F)F [C]
[2]; dose 10 ppm
  % Mortality Mites Proct: 40%
[2]; dose 50 ppm
  % Mortality Mites Proct: 100%
[2]; dose 100 ppm
  % Mortality Mites Proct: 100%
[3]; Rep. 1
  Time required in minutes to achieve 100% mortality: 16 min
[3]; Rep. 2
  Time required in minutes to achieve 100% mortality: 16 min
[3]; Rep. 3
  Time required in minutes to achieve 100% mortality: 15 min
Drosophila melanogaster; dose 10 ppm
  % Mortality Drosophila Adults: 15%
  % Mortality Drosophila larvae: 0%
Drosophila melanogaster; dose 50 ppm
  % Mortality Drosophila Adults: 20%
  % Mortality Drosophila larvae: 53%
Drosophila melanogaster; dose 100 ppm
  % Mortality Drosophila Adults: 100%
  % Mortality Drosophila larvae: 73%
[4]; dose 10 ppm
  % Mortality Mites Hist: 90%
[4]; dose 50 ppm
  % Mortality Mites Hist: 100%
[4]; dose 100 ppm
  % Mortality Mites Hist: 100%

## CC(C)(C)c1ccc(CCOc2ncnc3ccccc23)cc1 [Fenazaquin, fenazaquin]
[1]; dose 0.012 μg/bee
  % Mortality Bees: 18%
[1]; dose 0.12 μg/bee
  % Mortality Bees: 14%
[1]; dose 1.2 μg/bee
  % Mortality Bees: 18%
Varroa jacobsoni; dose 0.012 μg/bee
  % Mortality Parasites: 19%
Varroa jacobsoni; dose 0.12 μg/bee
  % Mortality Parasites: 27%
Varroa jacobsoni; dose 1.2 μg/bee
  % Mortality Parasites: 87%

## Cc1nn(C)c(Oc2ccccc2)c1C=NOCc1ccc(C(=O)OC(C)(C)C)cc1 [Fenpyroximate, fenpyroximate]
[1]; dose 0.003 μg/bee
  % Mortality Bees: 13%
[1]; dose 0.03 μg/bee
  % Mortality Bees: 10%
[1]; dose 0.3 μg/bee
  % Mortality Bees: 24%
Varroa jacobsoni; dose 0.003 μg/bee
  % Mortality Parasites: 7%
Varroa jacobsoni; dose 0.03 μg/bee
  % Mortality Parasites: 30%
Varroa jacobsoni; dose 0.3 μg/bee
  % Mortality Parasites: 100%

## CC(C)(C)c1ccc(CSc2cnn(C(C)(C)C)c(=O)c2Cl)cc1 [Pyridaben, pyridaben]
[1]; dose 0.001 μg/bee
  % Mortality Bees: 12%
[1]; dose 0.01 μg/bee
  % Mortality Bees: 10%
[1]; dose 0.1 μg/bee
  % Mortality Bees: 20%
Varroa jacobsoni; dose 0.001 μg/bee
  % Mortality Parasites: 14%
Varroa jacobsoni; dose 0.01 μg/bee
  % Mortality Parasites: 0%
Varroa jacobsoni; dose 0.1 μg/bee
  % Mortality Parasites: 100%
